Experiment [1] concerns the target human leukocyte elastase (RPMI 1788). The experiment in a line: Elastase activity in human leukocytes RPMI 1788. The format is biochemical.
For experiment [2], the system named is IL-1 release from P388D1 macrophages. As to the kind of experiment: IL-1 release from P388D1 macrophages (L929 bioassay). The format is cell-based, mouse. Conditions: for IL-1 release, Percent of Control: over 18 hours, N=6; for reduction of IL-1 release: 25 and 50 μM, 18 hr. The source says:
(§1) Few reports in the literature indicate interaction at these receptor sites other than by peptides or antibodies. […] Blocking these receptors is desirable because the entire inflammation cascade of events is triggered by the early release of TNFa and IL-1. […] Radioisotopes were obtained from New England Nuclear [Dupont, Boston, MA] and substrates and co- factors were obtained from Sigma Chemical Co. [St. Louis, MO]. […] Cell lines were obtained from American Type Culture Collection [Rockville, MD]. In Vivo Tests Anti-inflammatory screen in mice: Male CF male mice weighing 28-32g obtained from Jackson Lab. [Bar Harbor, […]] were used to screen agents at 8 or 16 mg/kg intraperitoneal [I.P.] x 2 administered 3 hr and 30 min prior to administering the irritant, according to Winter's protocol. Evaluation of the induced edema was made by injecting 2% carrageenan in 0.9% saline into the plantar region of the foot. The opposite foot injected with 0.9% isotonic saline was used as a base line. […] Salmonella abortus equi [Lot # 69F4003] […] Drugs from 2 to 16 mg/kg, I.P. were administered 2 hr prior and 2 hr post-injection of the LPS and then subsequently for every 24 hr for the length ofthe animals' lives. Deaths were recorded every 12 hr and continued for 96 hr. […] In vitro TNFa andIL-1 Measurements and Cellular Regulation IC-21 mouse macrophages were maintained in RPMI-1640 + 10% FCS + P/S. After the cells had grown to confluency, E. coli LPS at 10 Ixg/ml was added to the medium. Agents were incubated at 12.5 to 100 µM final concentration for 18 hr. The medium (100 btl) was collected for TNFCt determinations. Interleukin-1 [IL-1] release was determined using P388D1 cells which were maintained in RPMI-1640 + 10% FCS + P/S. The L929 bioassay was used to quantitate the TNF and the IL-1 levels. The L929 mouse fibroblasts were grown in DMEM + 10% FCS + P/S to confluency in 96 well plates and incubated with 100 tl ofmedium from […] or P388D cells after 18 hr. The cells were stained with 0.2% crystal violet in 20% MeOH and read at 580 nm using a Molecular Devices scanner (SOFT-max program). High Affinity Binding to Receptors on L929-106 Cells Two laCi of 125I-TNFct (human recombinant, 30 mCi/tg New England Nuclear) or 125I-IL-1 (70-120[.t Ci/lxg,New England Nuclear) was added to confluency L929 cells for 90 min or 5 hr, respectively with 25, 50 and 100 tM of the test compounds 12]. The cells were washed repeatedly with isotonic saline, pH.7.2 and aliquots counted. Prostaglandin cylcooxygenase activity Mouse J774AI macrophages maintained in Dulbecco's modified Eagle's medium + 15% FCS + P/S. Cells (5 x 106) were incubated with agents (5 to 100 ].tM final concentration) and 3H-arachidonic acid (100 Ci/mol) for 60 min at 37C in a CO2 incubator. The reaction was terminated with 2N HCI, the mixture extracted 2 X with ether, and the organic layer evaporated.

The test system is the same in experiment [3]. The description is as above. Particulars: 5 μM, over 18 hours, N=6. In kind it is cell-based, mouse.
Experiment [4] relates to TNFα release from IC-21 macrophages. As to the kind of experiment: TNFα release from IC-21 macrophages induced by LPS (L929 bioassay). The format is cell-based, mouse. Conditions: for TNFα release, Percent of LPS Control: 18 hours exposure to LPS, N=6.
Source text: as §1

The target of experiment [5] is J774-A1 prostaglandin cyclooxygenase. The experiment in a line: Prostaglandin cyclooxygenase activity in J774-A1 macrophages. In kind it is cell-based, mouse. Particulars: 60 min; read-out: IC50 Cyclo-oxygenase J774-A1.
Source text: as §1

Experiment [6] deals with IC-21 macrophage elastase. As to the kind of experiment: Elastase activity in IC-21 macrophages. The format is biochemical, mouse. Particulars: 120 min.

The IC50 is the midpoint of a concentration-inhibition curve.

As to `COc1c2cc(S(=O)(=O)[O-])cc1Cc1cc(S(=O)(=O)[O-])cc(c1OC)Cc1cc(S(=O)(=O)[O-])cc(c1OC)Cc1cc(S(=O)(=O)[O-])cc(c1OC)Cc1cc(S(=O)(=O)[O-])cc(c1OC)Cc1cc(S(=O)(=O)[O-])cc(c1OC)C2.[Na+].[Na+].[Na+].[Na+].[Na+].[Na+]` [Compound 6], the IC50 was 275 µM in experiment [1] (60 min) and 162 µM in experiment [1] (120 min). The “IL-1 release, Percent of Control” value in experiment [2] (12.5 μM) is recorded as 6 + 2% of Control; in experiment [2] (25 μM), 0% of Control; in experiment [2] (50 μM), 0% of Control; in experiment [3], 13 + 3% of Control. In addition, the “reduction of IL-1 release” value in experiment [2] is over 95%. In addition, the “TNFα release, Percent of LPS Control” value in experiment [4] (5 μM) is recorded as 118 + 7% of LPS Control; in experiment [4] (12.5 μM), 102 + 5% of LPS Control; in experiment [4] (25 μM), 86 + 6% of LPS Control; in experiment [4] (50 μM) it was 62 + 4% of LPS Control. Besides, in experiment [4] (50 μM, 18 hr), the “reduction of TNFα release” value worked out at 38%.

For `CC(=O)Oc1c2cc(S(=O)(=O)[O-])cc1Cc1cc(S(=O)(=O)[O-])cc(c1OC(C)=O)Cc1cc(S(=O)(=O)[O-])cc(c1OC(C)=O)Cc1cc(S(=O)(=O)[O-])cc(c1OC(C)=O)Cc1cc(S(=O)(=O)[O-])cc(c1OC(C)=O)Cc1cc(S(=O)(=O)[O-])cc(c1OC(C)=O)Cc1cc(S(=O)(=O)[O-])cc(c1OC(C)=O)Cc1cc(S(=O)(=O)[O-])cc(c1OC(C)=O)C2.[Na+].[Na+].[Na+].[Na+].[Na+].[Na+].[Na+].[Na+]` [Compound 8], the “IL-1 release, Percent of Control” value in experiment [2] (12.5 μM) is 66 + 4% of Control; in experiment [2] (25 μM) it was 0% of Control; in experiment [2] (50 μM), 0% of Control; in experiment [3], 75+ 5% of Control. Moreover, in experiment [2], the “reduction of IL-1 release” value is reported as over 95%. For the same molecule, the IC50 in experiment [5] is 33.3 µM; in experiment [6], 111 µM. Also, the “TNFα release, Percent of LPS Control” value was 73 + 4% of LPS Control in experiment [4] (5 μM), 66 + 4% of LPS Control in experiment [4] (12.5 μM), 44 + 3% of LPS Control in experiment [4] (25 μM) and 53 +4% of LPS Control in experiment [4] (50 μM).

The values above are taken from paper PMC2365101, “Anti-Inflammatory Activity of (Polyphenolic)-Sulfonates and Their Sodium Salts in Rodents” (Metal-Based Drugs, 1998).
